Legend:
[1] = biological target: T1, human β-FXIIa (Homo sapiens, UniProt P00748); experiment: Serine protease inhibition assay, fluorogenic substrate, FXIIa; format: biochemical; settings: 200 µM, endpoint RFU after 1 h, 25 °C
T1 construct: human β-FXIIa, HFXIIAB, > 95% purity; Molecular Innovations; purchased Molecular Innovations HFXIIAB
Procedure: (§1) The inhibitory activity of further semi-synthesized compounds toward the coagulation factor XIIa, thrombin, FXIa, FXa, and trypsin was measured by quantifying the hydrolysis rate of the fluorogenic substrates as reported previously ([Korff et al., 2020]; [Platte et al., 2021]; [Imberg et al., 2022]). Briefly, the activity was tested in buffer (10 mM Tris-Cl, 150 mM NaCl, 10 mM MgCl2·6 H2O, 1 mM CaCl2·2 H2O, 0.1% w/v BSA, 0.01% v/v Triton-X100, pH 7.4) utilizing clear flat-bottom, black polystyrene 96-well plates. The enzymes (human β-FXIIa, HFXIIAB, > 95% purity; Molecular Innovations, 2.5 nM – final concentration; human α-thrombin (active) protein, ABIN2127880, > 95% purity; antibodies-online, 0.25 nM – final concentration; human Factor Xa, HFXA, > 95% purity; Molecular Innovations, 2.5 nM – final concentration; human factor XIa, HFXIA, >95% purity; Molecular Innovations, 0.5 nM – final concentration porcine trypsin; Merck, 3.5 nM – final concentration) and the fluorogenic substrates for FXIIa: Boc-Gln-Gly-Arg-AMC (Pepta Nova, 25 µM – final concentration, Km = 167 µM); for thrombin: Boc Val Pro Arg AMC (Pepta Nova, 25 µM – final concentration, Km = 18 µM); for FXa: Boc-Ile-Glu-Gly-Arg-AMC (Pepta Nova, 25 µM – final concentration); for FXIa: Boc-Glu-(OBzl)-Ala-Arg-AMC (Pepta Nova, 25 µM – final concentration); for trypsin: Z-Gly-Gly-Arg-AMC (Sigma-Aldrich, 25 µM – final concentration) were used. The fluorogenic substrate solution was added into the wells followed by the addition of test-compounds solution, and the reaction was triggered by addition of the enzyme solution (final testing volume – 150 µL). In case of blank (substrate + buffer) and control (substrate + enzyme) wells, DMSO was added instead of the test-compounds’ solution. Fluorescence intensity was measured with Microplate Reader Mithras LB 940 (Berthold Technologies, excitation at 355 nm, emission at 460 nm) for a period of 1 h with a read every minute. The reactions were performed at 25 °C. To derive % of enzyme inhibition, endpoint RFU (single fluorescence reading after 1 h) was used. As a positive controls for thrombin, FXa, FXIIa, FXIa, and trypsin were used dabigatran (500 nM), rivaroxaban (500 nM), compound “39b” (500 nM) ([Platte et al., 2021]), Inhibitor 5t (8 µM) ([Imberg et al., 2022]), Inhibitor E (2 µM) ([Erbacher et al., 2024]), respectively. Semi-synthesized compounds were screened at 200 µM.

[2] = biological target: T2, human Factor Xa (Homo sapiens, UniProt P00742); experiment: Serine protease inhibition assay, fluorogenic substrate, FXa; format: biochemical; settings: 200 µM, endpoint RFU after 1 h, 25 °C
T2 construct: human Factor Xa, HFXA, > 95% purity; Molecular Innovations; purchased Molecular Innovations HFXA
Procedure: (§2) The inhibitory activity of further semi-synthesized compounds toward the coagulation factor XIIa, thrombin, FXIa, FXa, and trypsin was measured by quantifying the hydrolysis rate of the fluorogenic substrates as reported previously ([Korff et al., 2020]; [Platte et al., 2021]; [Imberg et al., 2022]). Briefly, the activity was tested in buffer (10 mM Tris-Cl, 150 mM NaCl, 10 mM MgCl2·6 H2O, 1 mM CaCl2·2 H2O, 0.1% w/v BSA, 0.01% v/v Triton-X100, pH 7.4) utilizing clear flat-bottom, black polystyrene 96-well plates. […] Fluorescence intensity was measured with Microplate Reader Mithras LB 940 (Berthold Technologies, excitation at 355 nm, emission at 460 nm) for a period of 1 h with a read every minute. […] To derive % of enzyme inhibition, endpoint RFU (single fluorescence reading after 1 h) was used. […]

[3] = biological target: T3, human factor XIa (Homo sapiens, UniProt P03951); experiment: Serine protease inhibition assay, fluorogenic substrate, FXIa; format: biochemical; settings: endpoint RFU after 1 h, 25 °C
T3 construct: human factor XIa, HFXIA, >95% purity; Molecular Innovations; purchased Molecular Innovations HFXIA
Procedure: as §1

[4] = biological target: T4, porcine trypsin (Sus scrofa, UniProt P00761); experiment: Serine protease inhibition assay, fluorogenic substrate, trypsin; format: biochemical; settings: 200 µM, endpoint RFU after 1 h, 25 °C
T4 construct: porcine trypsin; Merck, 3.5 nM – final concentration; purchased Merck
Procedure: as §2

[5] = Hepatic phase II sulfation, human cytosol; format: in vitro ADME; settings: 50 µM, 4 h
Procedure: (§3) Liver microsomes and cytosol were obtained for two organisms, horse and human. Fresh horse liver was purchased locally cut to pieces of ca. 50 g each and frozen in liquid nitrogen. Until further usage, the liver was stored at -80 °C. The preparation of microsomes and cytosol was carried out according to Balk et al. ([Balk et al., 1984]), and the protein content was determined by Bradford assay with bovine serum albumin as a reference ([Bradford, 1976]). Human liver microsomes and cytosol (150 Donors Ultrapool™) were provided by Corning, Inc. (Corning, New York, NY, USA). Besides assay-specific positive controls, all assays included stability controls, moreover, matrix influences were considered. For oxidation, additional non-oxidation controls were included. Each experiment was performed in duplicate. All stated concentrations are final concentration values. The test compounds (acetoxystachybotrylactam acetate-tryptophan 2a, 2b and acetoxystachybotrylactam acetate-tryptamine 3a, 3b ) were extended by the most biologically active derivative previously characterized by our group (acetoxystachybotrylactam acetate-agmatine 4 ) ([Steinert et al., 2022]).
(§4) For phase II metabolism, potential sulfation and glucuronidation were investigated. For sulfation, the reaction mixture was pipetted as follows: first, ultrapure water was added and mixed with a 1 mM DTT solution (contains DTT, 100 mM phosphate buffer, 100 µM ascorbic acid, pH 7.4). Then, PAPS (100 µM) and the substance of interest (50 µM) were added, which was concluded by the addition of horse/human cytosol (10 mg protein/mL). For glucuronidation, first, ultrapure H2O, phosphate buffer (50 mM) and MgCl2 (5 mM) were added to the reaction vessel, followed by addition of the investigated substance (50 µM), UDPGA (5 µM), and horse/human microsomes (1 mg protein/mL), respectively. For both assays, the final volume was 100 µL which was subsequently incubated for 4 h at 37 °C in darkness. […] After centrifugation (4 °C, 10 min, 15,000 rpm), 150 µL of supernatant was diluted with 850 µL H2O, which was subsequently analyzed by HPLC-qToF-HRMS. […]

[6] = Hepatic phase II sulfation, horse cytosol; format: in vitro ADME; settings: 50 µM, 4 h
Procedure: as §3, §4

[7] = Precipitation in cell culture medium; format: physicochemical; settings: cell culture medium (DMEM), 0.5% DMSO
[8] = test system: lung adenocarcinoma cells (A549, CCL-185); settings: A549, 24 h incubation, resazurin
[9] = test system: human α-thrombin; set-up: method as in Steinert et al., 2022; settings: 500 nM; ref Steinert et al., 2022; cited from earlier work
[10] = biological target: T2, human Factor Xa; set-up: method as in Steinert et al., 2022; settings: 500 nM; ref Steinert et al., 2022; cited from earlier work
[11] = Hepatic phase I metabolism (oxidation), human microsomes; format: in vitro ADME; settings: 10 µM, 90 min
Procedure: as §3
(§5) The phase I metabolism was investigated utilizing a NADPH- regenerating system. […] After centrifugation (4 °C, 10 min, 15,000 rpm), 150 µL of supernatant was diluted with 850 µL H2O, which was subsequently analyzed by HPLC-qToF-HRMS. […]

[12] = Hepatic phase I metabolism (oxidation), horse microsomes; format: in vitro ADME; settings: 10 µM, 90 min
Procedure: as §3, §5

[13] = Hepatic phase II glucuronidation, human microsomes; format: in vitro ADME; settings: human microsomes, 50 µM, 4 h
Procedure: as §3
For phase II metabolism, potential sulfation and glucuronidation were investigated. For sulfation, the reaction mixture was pipetted as follows: first, ultrapure water was added and mixed with a 1 mM DTT solution (contains DTT, 100 mM phosphate buffer, 100 µM ascorbic acid, pH 7.4). Then, PAPS (100 µM) and the substance of interest (50 µM) were added, which was concluded by the addition of horse/human cytosol (10 mg protein/mL). For glucuronidation, first, ultrapure H2O, phosphate buffer (50 mM) and MgCl2 (5 mM) were added to the reaction vessel, followed by addition of the investigated substance (50 µM), UDPGA (5 µM), and horse/human microsomes (1 mg protein/mL), respectively. For both assays, the final volume was 100 µL which was subsequently incubated for 4 h at 37 °C in darkness. Quenching and protein precipitation was achieved by adding 200 µL of cold MeCN (-20 °C). After centrifugation (4 °C, 10 min, 15,000 rpm), 150 µL of supernatant was diluted with 850 µL H2O, which was subsequently analyzed by HPLC-qToF-HRMS. For both experiments, 50 µM 7-hydroxycumarin served as positive control.
Chromatographic separation and mass spectrometric detection were identical to the parameters already described for the fragmentation experiments for phase I and phase II glucuronidation metabolism. For sulfation, the HPLC-qToF-HRMS was operated in negative ionization mode at -4.5 kV and otherwise identical source parameters as previously described. […]

[14] = test system: Human liver carcinoma cells (HepG2, HB-8065); set-up: method as in Steinert et al., 2022; settings: HepG2; ref Steinert et al., 2022; cited from earlier work
[15] = test system: lung adenocarcinoma cells (A549, CCL-185); set-up: method as in Steinert et al., 2022; settings: ref Steinert et al., 2022; cited from earlier work
[16] = test system: plasma coagulation; set-up: method as in Steinert et al., 2022; settings: ref Steinert et al., 2022; cited from earlier work
[17] = test system: plasma coagulation; set-up: method as in Steinert et al., 2022; settings: ref Steinert et al., 2022; cited from earlier work; remark: listed apart in the source

T2 sequence (P00742 235-488 limits assumed): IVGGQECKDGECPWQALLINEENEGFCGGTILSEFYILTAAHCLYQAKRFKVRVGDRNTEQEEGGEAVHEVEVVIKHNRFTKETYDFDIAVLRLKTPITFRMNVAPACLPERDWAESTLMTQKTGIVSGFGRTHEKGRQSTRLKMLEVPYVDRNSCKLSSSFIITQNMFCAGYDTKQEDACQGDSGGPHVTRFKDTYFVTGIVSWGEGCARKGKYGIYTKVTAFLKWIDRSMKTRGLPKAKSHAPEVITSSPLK
T2 sequence (P00742 41-179 partner limits assumed): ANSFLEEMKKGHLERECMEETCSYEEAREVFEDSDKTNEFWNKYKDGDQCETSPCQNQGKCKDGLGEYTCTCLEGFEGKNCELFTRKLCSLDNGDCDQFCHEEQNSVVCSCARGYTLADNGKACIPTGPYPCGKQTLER
T1 sequence (P00748 373-615 limits assumed, other chains not shown): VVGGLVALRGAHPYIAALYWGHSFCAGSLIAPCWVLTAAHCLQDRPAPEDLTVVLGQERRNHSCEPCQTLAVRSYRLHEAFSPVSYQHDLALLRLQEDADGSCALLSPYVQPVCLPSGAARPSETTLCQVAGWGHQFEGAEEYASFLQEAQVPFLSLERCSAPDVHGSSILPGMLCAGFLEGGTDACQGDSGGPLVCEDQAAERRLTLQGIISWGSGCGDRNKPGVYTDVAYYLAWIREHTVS
T4 sequence (P00761 9-231): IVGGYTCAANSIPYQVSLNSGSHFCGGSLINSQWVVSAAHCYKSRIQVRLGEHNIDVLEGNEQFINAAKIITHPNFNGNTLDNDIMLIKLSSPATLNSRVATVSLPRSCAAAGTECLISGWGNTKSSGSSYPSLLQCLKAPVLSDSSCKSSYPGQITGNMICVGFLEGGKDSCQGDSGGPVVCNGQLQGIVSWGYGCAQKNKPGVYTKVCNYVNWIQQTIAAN
T3 sequence (P03951 388-625 limits assumed): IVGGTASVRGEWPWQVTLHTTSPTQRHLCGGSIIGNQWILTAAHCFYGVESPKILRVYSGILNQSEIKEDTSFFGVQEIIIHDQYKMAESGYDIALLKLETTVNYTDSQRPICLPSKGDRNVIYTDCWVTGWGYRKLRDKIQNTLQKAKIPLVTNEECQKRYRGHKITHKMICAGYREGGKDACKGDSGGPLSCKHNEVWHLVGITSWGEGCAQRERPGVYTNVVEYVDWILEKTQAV
T3 sequence (P03951 19-387 partner limits assumed): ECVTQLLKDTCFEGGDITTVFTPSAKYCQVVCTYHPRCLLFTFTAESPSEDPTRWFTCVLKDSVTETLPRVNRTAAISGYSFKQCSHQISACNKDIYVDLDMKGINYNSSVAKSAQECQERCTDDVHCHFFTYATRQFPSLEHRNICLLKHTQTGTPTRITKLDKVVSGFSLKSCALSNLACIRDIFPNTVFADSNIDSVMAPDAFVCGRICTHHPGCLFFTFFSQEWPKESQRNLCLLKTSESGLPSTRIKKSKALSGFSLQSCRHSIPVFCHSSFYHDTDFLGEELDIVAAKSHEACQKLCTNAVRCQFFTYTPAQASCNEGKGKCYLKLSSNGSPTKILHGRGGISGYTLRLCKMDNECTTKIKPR

In the case of CC(=O)OC1CC2(C)C(CCC(C)C23Cc2c(O)cc4c(c2O3)C(=O)N(CCc2c[nH]c3ccccc23)C4)C(C)(C)C1OC(C)=O (stereo not shown) [Compound 3b, Acetoxystachybotrylactam acetate-tryptamine], the “inhibition of FXIIa” value [1] is reported as “no inhibition”, the “inhibition of FXa” value [2] is reported as “no inhibition” and the inhibition at 200 µM [3] is reported as 17%. The inhibition of trypsin [4] was “no inhibition”, the “metabolism under sulfation conditions, in words” value (“metabolism” below) [5] was “did undergo metabolism” and the “metabolism” value [6] was “did undergo metabolism”. For the same compound, the “concentration at which precipitation in cell culture medium starts” value [7] was at least 1000 nM and the “cytotoxicity (cell viability, T/C), in words” value [8] was “no impact on cell viability was observed”.
In the case of [H]/N=C(/N)c1ccc(NCc2nc3cc(C(=O)N(CCC(=O)O)c4ccccn4)ccc3n2C)cc1 [Dabigatran, dabigatran], the “inhibition of thrombin (positive control)” value [9] is listed as 98.3 ± 0.1%.
In the case of O=C(NC[C@H]1CN(c2ccc(N3CCOCC3=O)cc2)C(=O)O1)c1ccc(Cl)s1 [rivaroxaban], the “inhibition of FXa (positive control)” value [10] is given as 99.8 ± 0.3%.
With “acetoxystachybotrylactam acetate-agmatine [Compound 4]” the “phase I conversion, in words” value [11] was “fastest among the reaction products to be metabolized”, the “phase I conversion, in words” value [12] was “fastest among the reaction products to be metabolized” and the “metabolism” value [5] was “did undergo metabolism”. For the same compound, the “metabolism” value [6] was “did undergo metabolism”, the “glucuronidation: conversion and formation of glucuronides, in words” value [13] was “best conversion” and the “cytotoxicity, in words” value [14] was “no cytotoxicity”. The “cytotoxicity, in words” value [15] was “no cytotoxicity”, the “plasma coagulation, activated partial thromboplastin time” value [16] was “prolonged plasma coagulation” and the “plasma coagulation, prothrombin time” value [17] was “prolonged plasma coagulation”.
